Values joined by “and” are separate entries in the source; they are usually repeats but may differ in a detail not shown here. Equal values may be shown once. “Also recorded” adds a separate entry of the source.
Key:
[1] = Safety and tolerability assessment in healthy male volunteers; assay type: in vivo, human
Text: Physical examination, blood pressure, pulse rate, body temperature and body weight, laboratory parameters and 12-lead electrocardiogram (ECG), as well as adverse events using the common terminology criteria for adverse events (CTCAE) Version 4.03, were monitored throughout the study for safety assessment.

[2] = cited from earlier work
[3] = test system: cytochrome P450 3A4; set-up: method as in Bayer AG, data on file; settings: in vitro, humans; ref Bayer AG, data on file; cited from earlier work
[4] = Mass balance: excretion of radioactivity, copanlisib and metabolites in urine and feces; assay type: in vivo, human; settings: for Amount excreted in feces as this component, arithmetic mean (range): HPLC with off-line radioactivity detection
Method: After pooling and homogenization of urine and feces samples per time interval, aliquots were stored at −20 °C for total radioactivity determination and at −70°C for metabolic profiling (including blood/plasma samples). For determination of total radioactivity, samples were analyzed with a Perkin Elmer Tri-Carb™ 3100 TR liquid scintillation analyzer (Perkin Elmer, Waltham, MA, USA) with quenching correction. For metabolite profiling, plasma samples were treated with a mixture of acetonitrile (ACN) +0.2% acetic acid, after shaking and centrifugation, the supernatant was concentrated. Urine and feces samples were treated with solid-phase extraction (Waters HLB 30 mg, 1 mL, Waters, Milford, MA, USA) and liquid–liquid extraction (ACN + 0.2% trifluoroacetic acid/water, 80:20 volume/volume), respectively. Subsequently samples from plasma, urine and feces were analyzed by HPLC-LSC on Synergi Polar 4 µm 150 × 2 mm (Phenomenex, Aschaffenburg, Germany) with off-line radioactivity detection by Microbeta^2™ Plus liquid scintillation counter with Ultima Flo™ AP scintillation fluid (Packard Instrument BV, Groningen, The Netherlands).
Metabolite patterns in plasma, urine and feces were studied by the HPLC method with off-line radioactivity detection described above.
A similar approach has been described earlier.

[5] = all 6 subjects after individual study release (Day 20–Day 34)
[6] = study release at Day 20 (N = 6)
[7] = study release at Day 27 (N = 5)
[8] = study release at Day 34 (N = 3)

## COc1c(OCCCN2CCOCC2)ccc2c1N=C(NC(=O)c1cnc(N)nc1)N1CCN=C21 [Copanlisib, copanlisib]
[1]; 12 mg, 6 healthy subjects
  Adverse events related to copanlisib: Three mild-to-moderate gastrointestinal adverse events
[1]; abdominal pain, diarrhea and nausea
  Subjects with TEAEs assessed as related to the study drug: 2
[1]; abdominal pain, nausea, flatulence, frequent bowel movements, diarrhea
  Total number of gastrointestinal TEAEs: 5
[1]; all 6 healthy volunteers, all above 2/3 of the lower limit for normal values
  Neutrophils and leukocytes: transient decrease
[1]; human, in vivo
  Other laboratory values, ECG or vital signs: No clinically relevant changes
[1]; single i.v. dose of 12 mg copanlisib, 6 healthy subjects
  Tolerability: well tolerated
[1]; single i.v. dose of 12 mg, 6 healthy subjects
  Deaths or serious adverse events: No death or SAEs; also recorded: without any serious adverse event
[1]; single i.v. dose of 12 mg, 6 volunteers
  Volunteers with at least one treatment emergent adverse event (TEAE): Three out of the 6
[2]; %CV 51.2, dose escalation study
  mean systemic plasma clearance: 18.9 L/h
[2]; PK on Cycle 1 Days 1 and 15 and Cycle 3 Day 15, dose escalation study
  Accumulation and time dependency after once weekly dosing: No accumulation and no time dependency
[2]
  Half-life, range (known PK of copanlisib): 16.9 to 72.7 h
[2]; dose range 0.1–1.2 mg/kg (5–93 mg total dose), dose escalation study
  Dose dependence of C max and AUC (0–25): dose proportional increases
[2]; human, in vivo, 0.8 mg/kg
  terminal phase half-life (t 1/2): 39.1 h
  volume of distribution: 871 L
[3]
  Involvement of cytochrome P450 3A4 in the primary biotransformation step: predominant involvement
[4]; [5]
  Total radioactivity excreted in feces, arithmetic mean: 64.2 (56.7–68.1) % of dose
  Total radioactivity excreted in feces, range: 56.7–68.1%
  Total radioactivity excreted in urine, arithmetic mean: 21.7 (17.0–27.4) % of dose
  Total radioactivity excreted in urine, range: 17.0–27.4%
  Total radioactivity recovery in urine and feces, mean: 86% and 85.9 ± 3.4% and about 86%
  Total radioactivity recovery in urine and feces, range: 81.7–91.0%
[4]; 6 subjects
  Amount excreted in feces as this component, arithmetic mean (range): 30.1 (16.8–37.9) % of dose
[4]; 6 subjects, listed as copanlisib
  Amount excreted in feces as this component, arithmetic mean (range): 30 % of dose
[4]; in vivo
  Dose cleared via metabolism: about 41%
  Renal clearance (A e,ur/AUC) as share of total body clearance: about 15%
  Share of observed renal clearance accounted for by passive renal filtration: about one to two-thirds
[4]; [6]
  Excreted radioactivity in feces, mean: 61.0 ± 4.1%
  Excreted radioactivity in feces, range: 54.8–66.7%
  Excreted radioactivity in urine, mean: 20.0 ± 3.5%
  Excreted radioactivity in urine, range: 16.3–26.5%
  Excreted total radioactivity in urine and feces, mean: 81.0 ± 2.1%
  Excreted total radioactivity in urine and feces, range: 77.8–83.0%
[4]; [7]
  Excreted radioactivity in feces, mean: 63.4 ± 4.5%
  Excreted radioactivity in feces, range: 56.7–67.4%
  Excreted radioactivity in urine, mean: 21.5 ± 3.9%
  Excreted radioactivity in urine, range: 17.0–27.4%
  Excreted total radioactivity in urine and feces, mean: 84.9 ± 2.3%
  Excreted total radioactivity in urine and feces, range: 82.3–88.5%
[4]; [8]
  Excreted radioactivity in feces, mean: 66.1 ± 3.2%
  Excreted radioactivity in feces, range: 62.4–68.1%
  Excreted radioactivity in urine, mean: 22.2 ± 1.4%
  Excreted radioactivity in urine, range: 20.6–23.1%
  Excreted total radioactivity in urine and feces, mean: 88.3 ± 2.9%
  Excreted total radioactivity in urine and feces, range: 85.2–91.0%
[4]; urine and feces
  Radioactivity excreted that could be assigned to known structures: Over 98%
[4]; urine plus feces, 6 subjects
  Amount of dose recovered as this component in urine and feces combined: 45.1 % of dose
[4]; urine plus feces, range of 6 subjects
  Amount of dose recovered as this component in urine and feces combined, range: 33.3–53.8%

Source: article PMC5573760 (Cancer Chemotherapy and Pharmacology, 2017)
